Measured values reported in patent US10633339B2, “Tricyclic sulfone compound as a ROR gamma modulator” (BRISTOL-MYERS SQUIBB COMPANY, priority 2018, dated 2020).

How the values were obtained:
[1] = Glutathione conjugate formation in human liver cytosol incubations; assay type: in vitro ADME; conditions: 10 μM compound, 5 mM GSH, 37° C., 60 min; UV peak area relative to parent at 260-280 nm; n=2
Experimental: (§1) Assay for Glutathione Conjugate formation in Rat or Human Cytosol Incubations Compound A and Compound 1 were incubated at a concentration of 10 μM with rat or human liver cytosol (3-5 mg/mL) (male Sprague-Dawley rat liver cytosol, lot BIM, n=100 purchased from Bioreclamation IVT, or mixed gender pool, lot 452115, n=150 purchased from Corning) in 1 mL of potassium phosphate buffer (50 mM, pH 8.5). The reactions (n=2, total volume=1000 μL) were initiated by the addition of glutathione (GSH) (5 mM) and incubated at 37° C. in a thermomixer. At 0 and 60 min, aliquots (100 μL) of the reaction mixtures were collected, and reactions were terminated by adding two volumes of acetonitrile. Proteins were then removed using a Millipore Sigma (Massachusetts, BA) Multiscreen Solvinert filter plate, by centrifugation (Eppendorf 5810 R, Hamburg, Germany) at 2000 rpm for 5 min. The filtrate was collected in a 96-well plate and was analyzed by high resolution Velos LTQ-Orbitrap (LC-UV/MS) system. UV absorbance was collected from 220-600 nm. […] The degrees of formation of GSH conjugates from the two compounds is shown below. Entries represent UV peak areas calculated relative to the parent compound at 260-280 nm. Data in parentheses represent the averages of the two experiments.

[2] = Glutathione conjugate formation in rat liver cytosol incubations; assay type: in vitro ADME
Experimental: as §1

Compound: C[C@H]1C[C@H](C(=O)O)CC[C@H]1C(=O)N1CC[C@@]2(S(=O)(=O)c3ccccc3)c3cc(F)c(C(F)(C(F)(F)F)C(F)(F)F)cc3CC[C@@H]12 [Compound 1, (1R,3S,4R)-4-((3aR,9bR)-8-fluoro-7-(perfluoropropan-2-yl)-9b-(phenylsulfonyl)-2,3,3a,4,5,9b-hexahydro-1H-benzo[e]indole-3-carbonyl)-3-methylcyclohexane-1-carboxylic acid]
- GSH conjugate, Human Cytosol UV Area (%), individual experiments [1]: not detected
- GSH conjugate, Rat Cytosol UV Area (%), individual experiments ([2]; 10 μM compound, 5 mM GSH, 37° C., 60 min, UV peak area relative to parent at 260-280 nm, n=2): not detected
- GSH adduct formation (statement in words) ([2]; based on in vitro experiments (rat or human cytosol, not given)): did not form a GSH adduct
